Target: EP2 subtype of the human PGE2 receptor (hEP2 receptor) (Homo sapiens, UniProt P43116)
Experiment: cAMP antagonism test, human prostaglandin E2 (subtype EP2) receptor signal
Format: cell-based
Outline: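 Cells (625000 cells/ml, mixed with cAMP-d2) were preincubated 20 min at RT with compound ([…]). They were then stimulated 60 min at RT with a 3× PGE2 solution (1.5 nM) in PBS-IBMX and lysed for 20 min. cAMP was read by HTRF as the 665/620 nm ratio ×10000, with antagonism seen as a rise in FRET signal.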

EP2 subtype of the human PGE2 receptor (hEP2 receptor), sequence (P43116 whole entry): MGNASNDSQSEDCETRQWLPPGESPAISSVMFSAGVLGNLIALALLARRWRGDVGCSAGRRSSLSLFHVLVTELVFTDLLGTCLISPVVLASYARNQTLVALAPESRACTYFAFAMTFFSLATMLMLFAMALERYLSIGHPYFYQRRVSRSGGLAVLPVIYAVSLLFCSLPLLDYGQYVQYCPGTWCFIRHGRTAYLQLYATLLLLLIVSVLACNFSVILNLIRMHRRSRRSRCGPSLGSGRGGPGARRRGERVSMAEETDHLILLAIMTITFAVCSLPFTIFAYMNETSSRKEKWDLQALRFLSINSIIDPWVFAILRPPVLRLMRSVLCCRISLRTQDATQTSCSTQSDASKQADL

IC50, > 50 nM:
COc1ccc(-c2ccc(C(=O)N3CCC(Cn4cc5c(C)c(C(=O)NCC(F)(F)F)ccc5n4)CC3)cc2)c(C)c1 [Example E141, 2-({1-[(4′-methoxy-2′-methylbiphenyl-4-yl)carbonyl]piperidin-4-yl}methyl)-4-methyl-N-(2,2,2-trifluoroethyl)-2H-indazole-5-carboxamide]
COc1cc(F)ccc1-c1ccc(C(=O)N2CCC(Cn3cc4c(C)c(C(=O)NCC(F)(F)F)ccc4n3)CC2)cc1 [Example E143, 2-({1-[(4′-fluoro-2′-methoxybiphenyl-4-yl)carbonyl]piperidin-4-yl}methyl)-4-methyl-N-(2,2,2-trifluoroethyl)-2H-indazole-5-carboxamide]
COCCNC(=O)c1ccc2nn(CC3CCN(C(=O)c4ccc(Oc5ccc(C#N)cc5)cc4)CC3)cc2c1C [Example E153, 2-({1-[4-(4-cyanophenoxy)benzoyl]piperidin-4-yl}methyl)-N-(2-methoxyethyl)-4-methyl-2H-indazole-5-carboxamide]
COCCNC(=O)c1ccc2nn(CC3CCN(C(=O)c4ccc(Br)c(C)c4)CC3)cc2c1C [Example E154, 2-{[1-(4-bromo-3-methylbenzoyl)piperidin-4-yl]methyl}-N-(2-methoxyethyl)-4-methyl-2H-indazole-5-carboxamide]
COCCNC(=O)c1ccc2nn(CC3CCN(C(=O)c4ccc(C(C)(C)C)cc4)CC3)cc2c1C [Example E155, 2-{[1-(4-tert-butylbenzoyl)piperidin-4-yl]methyl}-N-(2-methoxyethyl)-4-methyl-2H-indazole-5-carboxamide]
COCCNC(=O)c1ccc2nn(CC3CCN(C(=O)c4ccc(C5CCCCC5)cc4)CC3)cc2c1C [Example E157, 2-{[1-(4-cyclohexylbenzoyl)piperidin-4-yl]methyl}-N-(2-methoxyethyl)-4-methyl-2H-indazole-5-carboxamide]
COCCNC(=O)c1ccc2nn(CC3CCN(C(=O)c4ccc(Oc5cccnc5)cc4)CC3)cc2c1C [Example E160, N-(2-methoxyethyl)-4-methyl-2-({1-[4-(pyridin-3-yloxy)benzoyl]piperidin-4-yl}methyl)-2H-indazole-5-carboxamide]
COCCNC(=O)c1ccc2nn(CC3CCN(C(=O)c4ccc(Oc5ccccn5)cc4)CC3)cc2c1C [Example E162, N-(2-methoxyethyl)-4-methyl-2-({1-[4-(pyridin-2-yloxy)benzoyl]piperidin-4-yl}methyl)-2H-indazole-5-carboxamide]
COCCNC(=O)c1ccc2nn(CC3CCN(C(=O)c4ccc(Oc5nccc(C(F)(F)F)n5)cc4)CC3)cc2c1C [Example E163, N-(2-methoxyethyl)-4-methyl-2-{[1-(4-{[4-(trifluoromethyl)pyrimidin-2-yl]oxy}-benzoyl)piperidin-4-yl]methyl}-2H-indazole-5-carboxamide]
COCCNC(=O)c1ccc2nn(CC3CCN(C(=O)c4ccc(Oc5ccc(C(F)(F)F)nc5)cc4)CC3)cc2c1C [Example E164, N-(2-methoxyethyl)-4-methyl-2-{[1-(4-{[6-(trifluoromethyl)pyridin-3-yl]oxy}benzoyl)-piperidin-4-yl]methyl}-2H-indazole-5-carboxamide]
COCCNC(=O)c1ccc2nn(CC3CCN(C(=O)c4ccc(Oc5cccc(C(F)(F)F)n5)cc4)CC3)cc2c1C [Example E165, N-(2-methoxyethyl)-4-methyl-2-{[1-(4-{[6-(trifluoromethyl)pyridin-2-yl]oxy}benzoyl)-piperidin-4-yl]methyl}-2H-indazole-5-carboxamide]
COCCNC(=O)c1ccc2nn(CC3CCN(C(=O)c4ccc(-c5ccc(OC)cc5)cc4)CC3)cc2c1C [Example E166, 2-({1-[(4′-methoxybiphenyl-4-yl)carbonyl]piperidin-4-yl}methyl)-N-(2-methoxyethyl)-4-methyl-2H-indazole-5-carboxamide]
COCCNC(=O)c1ccc2nn(CC3CCN(C(=O)c4ccc(Oc5cccc(C(F)(F)F)c5)cc4)CC3)cc2c1C [Example E168, N-(2-methoxyethyl)-4-methyl-2-[(1-{4-[3-(trifluoromethyl)phenoxy]benzoyl}piperidin-4-yl)methyl]-2H-indazole-5-carboxamide]
COCCNC(=O)c1ccc2nn(CC3CCN(C(=O)c4ccc(Oc5ccc(Cl)cn5)cc4)CC3)cc2c1C [Example E170, 2-[(1-{4-[(5-chloropyridin-2-yl)oxy]benzoyl}piperidin-4-yl)methyl]-N-(2-methoxy-ethyl)-4-methyl-2H-indazole-5-carboxamide]
COCCNC(=O)c1ccc2nn(CC3CCN(C(=O)c4ccc(Oc5ccc(F)cc5F)cc4)CC3)cc2c1C [Example E171, 2-({1-[4-(2,4-difluorophenoxy)benzoyl]piperidin-4-yl}methyl)-N-(2-methoxyethyl)-4-methyl-2H-indazole-5-carboxamide]
COCCNC(=O)c1ccc2nn(CC3CCN(C(=O)c4ccc(Oc5ccc(F)c(F)c5)cc4)CC3)cc2c1C [Example E172, 2-({1-[4-(3,4-difluorophenoxy)benzoyl]piperidin-4-yl}methyl)-N-(2-methoxyethyl)-4-methyl-2H-indazole-5-carboxamide]
COCCNC(=O)c1ccc2nn(CC3CCN(C(=O)c4ccc(-c5ccc(C(F)(F)F)cc5)cc4)CC3)cc2c1C [Example E173, N-(2-methoxyethyl)-4-methyl-2-[(1-{[4′-(trifluoromethyl)biphenyl-4-yl]carbonyl}-piperidin-4-yl)methyl]-2H-indazole-5-carboxamide]
COCCNC(=O)c1ccc2nn(CC3CCN(C(=O)c4ccc(Oc5cccc(F)c5)cc4)CC3)cc2c1C [Example E174, 2-({1-[4-(3-fluorophenoxy)benzoyl]piperidin-4-yl}methyl)-N-(2-methoxyethyl)-4-methyl-2H-indazole-5-carboxamide]
COCCNC(=O)c1ccc2nn(CC3CCN(C(=O)c4ccc(OC(C)C)cc4F)CC3)cc2c1C [Example E175, 2-{[1-(2-fluoro-4-isopropoxybenzoyl)piperidin-4-yl]methyl}-N-(2-methoxyethyl)-4-methyl-2H-indazole-5-carboxamide]
COCCNC(=O)c1ccc2nn(CC3CCN(C(=O)c4ccc(-c5ccc(C)c(C)c5)cc4F)CC3)cc2c1C [Example E176, 2-({1-[(3-fluoro-3′,4′-dimethylbiphenyl-4-yl)carbonyl]piperidin-4-yl}methyl)-N-(2-methoxyethyl)-4-methyl-2H-indazole-5-carboxamide]
COCCNC(=O)c1ccc2nn(CC3CCN(C(=O)c4ccc(-c5ccc(OC)cc5F)cc4F)CC3)cc2c1C [Example E177, 2-({1-[(2′,3-difluoro-4′-methoxybiphenyl-4-yl)carbonyl]piperidin-4-yl}methyl)-N-(2-methoxyethyl)-4-methyl-2H-indazole-5-carboxamide]
COCCNC(=O)c1ccc2nn(CC3CCN(C(=O)c4ccc(OC(F)F)cc4)CC3)cc2c1C [Example E178, 2-({1-[4-(difluoromethoxy)benzoyl]piperidin-4-yl}methyl)-N-(2-methoxyethyl)-4-methyl-2H-indazole-5-carboxamide]
COCCNC(=O)c1ccc2nn(CC3CCN(C(=O)c4ccc(Oc5ccccc5F)cc4)CC3)cc2c1C [Example E179, 2-({1-[4-(2-fluorophenoxy)benzoyl]piperidin-4-yl}methyl)-N-(2-methoxyethyl)-4-methyl-2H-indazole-5-carboxamide]
COCCNC(=O)c1ccc2nn(CC3CCN(C(=O)c4ccc(-c5ccc(C#N)cc5C)cc4)CC3)cc2c1C [Example E180, 2-({1-[(4′-cyano-2′-methylbiphenyl-4-yl)carbonyl]piperidin-4-yl}methyl)-N-(2-methoxyethyl)-4-methyl-2H-indazole-5-carboxamide]
COCCNC(=O)c1ccc2nn(CC3CCN(C(=O)c4ccc(-c5ccc(Cl)cn5)cc4)CC3)cc2c1C [Example E181, 2-({1-[4-(5-chloropyridin-2-yl)benzoyl]piperidin-4-yl}methyl)-N-(2-methoxyethyl)-4-methyl-2H-indazole-5-carboxamide]
COCCNC(=O)c1ccc2nn(CC3CCN(C(=O)c4ccc(-c5cccc(C(F)(F)F)n5)cc4)CC3)cc2c1C [Example E182, N-(2-methoxyethyl)-4-methyl-2-[(1-{4-[6-(trifluoromethyl)pyridin-2-yl]benzoyl}-piperidin-4-yl)methyl]-2H-indazole-5-carboxamide]
COCCNC(=O)c1ccc2nn(CC3CCN(C(=O)c4ccc(-c5ccc(OC)cc5C)cc4)CC3)cc2c1C [Example E183, N-(2-methoxyethyl)-2-({1-[(4′-methoxy-2′-methylbiphenyl-4-yl)carbonyl]piperidin-4-yl}methyl)-4-methyl-2H-indazole-5-carboxamide]
COCCNC(=O)c1ccc2nn(CC3CCN(C(=O)c4ccc(-c5ccc(Cl)cc5C)cc4)CC3)cc2c1C [Example E184, 2-({1-[(4′-chloro-2′-methylbiphenyl-4-yl)carbonyl]piperidin-4-yl}methyl)-N-(2-methoxyethyl)-4-methyl-2H-indazole-5-carboxamide]
COCCNC(=O)c1ccc2nn(CC3CCN(C(=O)c4ccc(-c5ccc(C(C)(C)C#N)cc5)cc4)CC3)cc2c1C [Example E185, 2-[(1-{[4′-(2-cyanopropan-2-yl)biphenyl-4-yl]carbonyl}piperidin-4-yl)methyl]-N-(2-methoxyethyl)-4-methyl-2H-indazole-5-carboxamide]
COCCNC(=O)c1ccc2nn(CC3CCN(C(=O)c4ccc(-c5ccc(OC)cn5)cc4)CC3)cc2c1C [Example E186, N-(2-methoxyethyl)-2-({1-[4-(5-methoxypyridin-2-yl)benzoyl]piperidin-4-yl}methyl)-4-methyl-2H-indazole-5-carboxamide]

Reference: patent US9655887B2, “Pharmaceutical composition and the use thereof, and application regime of said pharmaceutical composition for on-demand contraception” (BAYER PHARMA AKTIENGESELLSCHAFT, priority 2013, dated 2017)
